Measured values taken from patent EP0358766A1, “METHOD OF STERILIZING PLANT ANTHERS” (VSESOJUZNY NAUCHNO-ISSLEDOVATELSKY INST. SELSKOKHOZYAISTV. …, priority 1988, dated 1989).
Like-named read-outs stand apart in the source and are kept apart here.

Key:
diploidem Roggen Chulpan = experiment: Field test of gametocidal activity, diploid rye Chulpan; type: in vivo; details: for Prozentsatz des Ansetzens von Samen bei freier Bestäubung: control = 100
Description: (§1) Die gametozide Aktivität der erfindungsgemäßen Sterilisationsmittel war in Feldversuchen in verschiedenen bodenklimatischen Zonen mit Teilstücken von 10 m^2 Größe in dreibis viermaliger Wiederholung festgestellt. Jedes Sterilisationsmittel wurde mindenstens 5 Jahre lang geprüft.
(§2) Die Entwicklung der Perioden der Organogenese wird zytologisch überwacht. Die Behandlung von Pflanzen mit dem Sterilisationsmittel erfolgt am Anfang der fünften Periode der Organogenese nach Kupermann.
(§3) Mit dem Ährenschieben verwirklicht man die Isolierung von Hauptähren und anderen Stockwerken in Pergametbeuteln. Bei Weizen und Tritikale werden Einzelisolatoren benutzt. Bei Roggen schließt man je 1 Ähre von […] verschiedenen nebeneinander befindlichen Pflanzen unter einen gemeinsamen Isolator ein. Bei Hirse wird jede Rispe getrennt isoliert. Der Sterilitätsprozentsatz (X) für Weizen, Roggen, Tritikale und Hirse wird nach der Formel [formula] ermittelt.
(§4) Die Kornzahl in nicht isolierten Ähren von Kontrollpflanzen wird bedingt für 100 % Ansetzen bei freier Bestäubung angenommen.
(§5) Um zuverlässige Angaben zu erhalten, verwendet man 20 bis 25 Isolatoren je Wiederholung für Weizen und Tritikale, 10 bis 15 Isolatoren jeder Wiederholung für Roggen und Hirse.
Pflanzen von diploidem Roggen Chulpan werden in der V.Periode der Organogenese mit einer 1%igen wäßrigen Emulsion von 1,1,3-Tribrompropan, 1,1,3-Tribrom-4-chlorbutan, 1,1,2,3-Tetrabrompropan, 1,2,3-Tribrompropan, 1,2-Dibrompropan, 1,1,3-Tribrom-3-ohlorpropan, 1,2-Dibrom-3--chlorpropan, 1,3-Dibrompropan, 1,1,1,3-Tetrabromheptan, 1,1,3-Tribromheptan bzw. 1,2-Dibromheptan behandelt. Die Emulsion enthält 0,5 Masse% C12-C14-Kalziumalkylbenzolsul- fonat und 0,01 Masse% Dimethylsulfoxid. Der Verbrauch an Präparat beträgt 10 kg/ha. Die Prüfergebnisse sind in der Tabelle 11 angegeben. Die gleichen Ergebnisse sind bei der Behandlung von diploidem Roggen Chulpan in der VI. Periode der Organogenese erhalten.

[1] = test system: Hirse Sorte Mironovskoye 94; experiment: Field test of gametocidal activity, millet Mironovskoye 94; type: in vivo; details: for Prozentsatz des Ansetzens von Samen bei freier Bestäubung: control = 100
Description: as §1, §2, §3, §4, §5
Pflanzen der Hirse Sorte Mironovskoye 94 werden in der V.Periode der Organogenese mit einer 1%igen wäßrigen Emulsion von 1,1,3-Tribrompropan, 1,2,3-Tribrompropan, 1,2-Dibrompropan, 1,2-Dibrom-3-chlorpropan, 1,3-Dibrompropan, 1,1,1,3-Tetrabromheptan, 1,1,3-Tribromheptan, 1,2-Dibromheptan behandelt. Die Emulsion enthält 0,5 Masse% C12-C14--Kalziumalkylbenzolaulfonat und 0,01 Masse% Dimethylsulfoxid als Adjuvans. Der Verbrauch an Präparat beträgt 6 kg/ha bei 600 1 Wasserdurchsatz. Die Prüfergebnisse sind in der Tabelle 15 angegeben. Die gleichen Ergebnisse sind bei der Behandlung der Hirse Sorte Mironovskoye 94 in der VI. Periode der Organogenese erhalten.

[2] = test system: Winterweizens Sorte Mironowskaya 808; experiment: Field test of gametocidal activity (anther sterilisation), winter wheat Mironowskaya 808; type: in vivo, Weizen; details: for Prozentsatz des Ansetzens von Samen bei freier Bestäubung: control = 100; for pest or weed control at 1 %, 10000 g/ha: read-out: Prozentsatz der Sterilität %
Description: as §1, §2, §3, §4, §5
Pflanzen des Winterweizens Sorte Mironowskaya 808 werden in der V.Periode der Organogenese durch Zerstäubung der 2%igen wäßrigen Emulsion von 1,1,3-Tribrompropan mit Hilfe einer Rückenspritze behandelt.
Als Emulgierungsmittel setzt man 0,5 Masse% C12-C14--Kalziumalkylbenzolsulphonat zu. Als Adjuvans enthält die Emulsion 0,01 Masse% Dimethylsulfoxid. Der Verbrauch an Präparat beträgt 20 kg/ha bei 1000 Liter Wasserdurchsatz. Als Kontrolle dienen Pflanzen, behandelt mit einem Verdünner ohne Sterilisationsmittel. Die Ergebnisse sind in der Tabelle 1 angegeben.
Der ProzeB wird analog zu dem in Beispiel 1 beschriebenen durchgeführt. Als Sterilisationsmittel verwendet man eine 2%ige waßrige Emulsion von 1,1,3-Tribrom-4-chlorbutan, 1,1,2,3-Tetrabrompropan. Die Prüfergebnisse sind in der Tabelle 1 angegeben.
Der Prozeß wird analog zu dem in Beispiel 1 beschriebenen durchgeführt, nur daß man 1%ige wäßrige Emulsion von 1,2,3-Tribrompropan, 1,2-Dibrompropan, 1,1,3-Tribrom-3--chlorpropan, 1,2-Dibrom-3-chlorpropan, 1,3-Dibrompropan, 1,1,1,3-Tetrabromheptan, 1,1,3-Tribromheptan, 1,2-Dibromheptan verwendet. Die Präparatdosis beträgt 10 kg ha. Die Prüfergebnisse sind in der Tabelle 1 angegeben. Die gleichen Ergebnisse sind bei der Behandlung des Weizens Sorte Mironowskaya 808 in der VI. Periode der Organogenese erhalten.

[3] = test system: diploidem Roggen Kharkovskaya 55; experiment: Field test of gametocidal activity, diploid rye Kharkovskaya 55; type: in vivo; details: for Prozentsatz des Ansetzens von Samen bei freier Bestäubung: control = 100
Description: as §1, §2, §3, §4, §5
Pflanzen von diploidem Roggen Kharkovskaya 55 werden in der V. Periode der Organogenese mit einer l%igen wäßrigen Emulsion von 1,1,3-Tribrompropan, 1,2,3-Tribrompropan, 1,2-Dibrompropan, 1,1,3-Tribrom-3-chlorpropan, 1,2--Dibrom-3-chlorpropan, 1,1,1,3-Tetrabromheptan, 1,1,3-Tribromheptan bzw. 1,2-Dibromheptan behandelt. Die Emulsion enthält 0,5 Masse% C12-C14-Kalziumalkylbenzolsulfonat und 0,01 Masse% Dimethylformamid als Adjuvans. Der Verbrauch an Präparat beträgt 6 kg/ha bei 600 1 Wasserdurchsatz. Die Prüfergebnisse sind in der Tabelle 13 angegeben. Die gleichen Ergebnisse sind bei der Behandlung von diploidem Roggen Kharkovskaya 55 in der VI. Periode der Organogenese erhalten.

[4] = test system: Sommerweizens Sorte Moskowskaya 35; experiment: Field test of gametocidal activity, spring wheat Moskowskaya 35; type: in vivo, Weizen; details: for Kornzahl der Ähre bei freier Bestäubung / Kornzahl der Ähre im Isolator / Prozentsatz des Ansetzens von Samen bei freier Bestäubung: Moskowskaya 35, period V, 1% aqueous emulsion, 6 kg/ha in 600 l water; for Prozentsatz des Ansetzens von Samen bei freier Bestäubung: control = 100; for pest or weed control at 6000 g/ha: read-out: Prozentsatz der Sterilität
Description: as §1, §2, §3, §4, §5
Pflanzen des Sommerweizens Sorte Moskowskaya 35 werden in der V. Periode der Organogenese (nach Kupermann) mit einer l%igen wäßrigen Emulsion von 1,1,3-Tribrompropan, […], 1,1,2,3-Tetrabrompropan, 1,2,3-Tribrompropan, 1,2-Dibrompropan, 1,1,3-Tribrom-3-chlorpropan, 1,2-Dibrom-3-chlorpropan, 1,3-Dibrompropan, 1,1,1,3-Tetrabromheptan bzw. 1,1,3-Tribromheptan behandelt. Die Emulsion enthält als Emulgierungsmittel 0,5 Masse% C12-C14-Kalzium- alkylbenzolsulfonat und als Adjuvans 0,01 Masse% Dimethylformamid. Der Verbrauch an Präparat beträgt 6 kg/ha bei 600 1 Wasserdurchsatz. Als Kontrolle dienen Pflanzen, behandelt mit dem Verdünner ohne Sterilisationsmittel.
Die Prüfergebnisse sind in der Tabelle 2 angegeben. Die gleichen Ergebnisse sind bei der Behandlung des Sommerweizens Sorte Moskowskaya 35 in der VI.Periode der Organogenese erhalten.

[5] = Chulpan, period V, 1% aqueous emulsion, 10 kg/ha
[6] = read-out: Prozentsatz der Sterilität
[7] = Mironovskoye 94, period V, 1% aqueous emulsion, 6 kg/ha in 600 l water
[8] = Mironowskaya 808, period V of organogenesis, 2% aqueous emulsion, 20 kg/ha in 1000 l water
[9] = Kharkovskaya 55, period V, 1% aqueous emulsion, 6 kg/ha in 600 l water
[10] = Mironowskaya 808, period V of organogenesis, 1% aqueous emulsion, 10 kg/ha

| SMILES | Kornzahl der Ähre bei freier Bestäubung (diploidem Roggen Chulpan; [5]) | Kornzahl der Ähre im Isolator (diploidem Roggen Chulpan; [5]) | Prozentsatz des Ansetzens von Samen bei freier Bestäubung (diploidem Roggen Chulpan; [5]) | pest or weed control at 10000 g/ha (diploidem Roggen Chulpan; [6]) [%] | Kornzahl der Rispe bei freier Bestäubung [1, 7] | Kornzahl der Rispe im Isolator [1, 7] | Prozentsatz des Ansetzens von Samen bei freier Bestäubung [1, 7] | pest or weed control at 6000 g/ha [1, 6] [%] | Kornzahl der Ähre bei freier Bestäubung [3, 9] | Kornzahl der Ähre im Isolator [3, 9] | Prozentsatz des Ansetzens von Samen bei freier Bestäubung [3, 9] | pest or weed control at 6000 g/ha [3, 6] [%] | Kornzahl der Ähre bei freier Bestäubung [4] | Kornzahl der Ähre im Isolator [4] | Prozentsatz des Ansetzens von Samen bei freier Bestäubung [4] | pest or weed control at 6000 g/ha [4] [%] | Kornzahl der Ähre bei freier Bestäubung [2, 10] | Kornzahl der Ähre im Isolator [2, 10] | Prozentsatz des Ansetzens von Samen bei freier Bestäubung [2, 10] | pest or weed control at 1 %, 10000 g/ha [2] [%] | further results |
| --- | --- | --- | --- | --- | --- | --- | --- | --- | --- | --- | --- | --- | --- | --- | --- | --- | --- | --- | --- | --- | --- |
| BrCCC(Br)Br [Beispiel 1, 1,1,3-Tribrompropan] | 46,5 | 0,2 | 92,8% | 99.6 | 175,1 | 0,0 | 71,6% | 100 | 43,1 | 1,2 | 95,6% | 97.2 | 34,2 | 0,7 | 89,5% | 99.9 | – | – | – | – | Kornzahl der Ähre bei freier Bestäubung [2, 8]: 40,3; Kornzahl der Ähre im Isolator [2, 8]: 0,9; Prozentsatz des Ansetzens von Samen bei freier Bestäubung [2, 8]: 84,0% |
| BrCC(Br)CBr [Beispiel 4, 1,2,3-Tribrompropan] | 45,0 | 0,0 | 89,8% | 100 | 147,5 | 0,0 | 60,2% | 100 | 40,5 | 0,6 | 89,8% | 98.6 | 34,1 | 0,0 | 89,3% | 100 | 34,8 | 0,0 | 93,3% | 100 | – |
| CC(Br)CBr (stereo not shown) [Beispiel 5, 1,2-Dibrompropan] | 48,2 | 0,0 | 96,2% | 100 | 160,3 | 0,0 | 65,5% | 100 | 42,8 | 0,8 | 94,9% | 98.1 | 33,6 | 0,0 | 87,9% | 100 | 36,7 | 0,1 | 98,4% | 99.7 | – |
| ClCC(Br)CBr (stereo not shown) [Beispiel 7, 1,2-Dibrom-3-chlorpropan] | 42,5 | 0,0 | 84,8% | 100 | 202,6 | 0,0 | 82,8% | 100 | 39,5 | 0,0 | 87,6% | 100 | 33,8 | 0,0 | 88,5% | 100 | 33,8 | 0,0 | 90,6% | 100 | – |
| CCCCC(Br)CC(Br)(Br)Br (stereo not shown) [Beispiel 9, 1,1,1,3-Tetrabromheptan] | 48,9 | 0,2 | 97,6% | 99.6 | 200,7 | 0,0 | 81,7% | 100 | 37,1 | 0,0 | 100,0% | 100 | 35,8 | 0,1 | 93,7% | 99.9 | 31,4 | 0,2 | 75,5% | 99.5 | – |
| CCCCCC(Br)CBr (stereo not shown) [Beispiel 11, 1,2-Dibromheptan] | 48,3 | 0,0 | 96,4% | – | 159,6 | 0,0 | 65,2% | – | 34,0 | 0,0 | 91,6% | – | – | – | – | – | 39,7 | 0,0 | 95,4% | – | percent sterility at 10000 g/ha (diploidem Roggen Chulpan; Chulpan, period V, 1% aqueous emulsion, 10 kg/ha, read-out: Prozentsatz der Sterilität): 100%; percent sterility at 6000 g/ha ([1]; Mironovskoye 94, period V, 1% aqueous emulsion, 6 kg/ha in 600 l water, read-out: Prozentsatz der Sterilität): 100%; pest or weed control at 1 %, 10000 g/ha [2, 10]: 100%; percent sterility at 6000 g/ha ([3]; Kharkovskaya 55, period V, 1% aqueous emulsion, 6 kg/ha in 600 l water, read-out: Prozentsatz der Sterilität): 100% |
